Reference: patent US11884647B2, “Compounds and methods for targeting pathogenic blood vessels” (THE REGENTS OF THE UNIVERSITY OF CALIFORNIA, priority 2019, dated 2024)

Test system: tumor endothelial cells (LL/2 lung cancer tumor)
Experiment: Lung LL2 ex vivo model of tumor angiogenesis
Format: cell-based, mouse
Conditions: for cytotoxicity at 20 µM / cytotoxicity at 10 µM: Mus musculus, Endothelial cell, 48 h, read-out: Cell death; for Cell death: drug treatment two days
Method in brief: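 Mouse LL2 tumor fragments (~0.5×0.5×0.3 mm) embedded in Matrigel and grown in endothelial growth medium at 37° C until endothelial outgrowth (about 4 days) before drug treatment. About 48 h after drug addition, stained 10 min with fluorescein diacetate/propidium iodide; live (green) and dead (red) cells imaged at 2× with fixed channel settings.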

Row | Compound | cytotoxicity at 20 µM | cytotoxicity at 10 µM | other results
1 | CCCCCCCOc1ccc(S(=O)(=O)c2cnc3ccc(SC)cc3c2N2CCC(N3CCN(CCO)CC3)CC2)cc1 [compound 250, 2-(4-(1-(3-((4-(heptyloxy)phenyl)sulfonyl)-6-(methylthio)quinolin-4-yl)piperidin-4-yl)piperazin-1-yl)ethan-1-ol] | 90% | – | –
2 | CCCCCCCOc1ccc(S(=O)(=O)c2cnc3ccc(SC)cc3c2N2CCC(N3CCC(N4CCCCC4)CC3)CC2)cc1 [compound 251, 4-([1,4′:1′,4″-terpiperidin]-1″-yl)-3-((4-(heptyloxy)phenyl)sulfonyl)-6-(methylthio)quinoline] | 60% | – | –
3 | CCCCCCCOc1ccc(S(=O)(=O)c2cnc3ccc(SC)cc3c2N2CCC(N3CCC(O)(c4ccccc4)CC3)CC2)cc1 [compound 262, 1′-(3-((4-(heptyloxy)phenyl)sulfonyl)-6-(methylthio)quinolin-4-yl)-4-phenyl-[1,4′-bipiperidin]-4-ol] | – | 20% | –
4 | CCCCCCCOc1ccc(S(=O)(=O)c2cnc3ccc([S+](C)[O-])cc3c2N2CCC(N3CCC(O)(c4ccccc4)CC3)CC2)cc1 (centres unmarked) [compound 263, 1′-(3-((4-(heptyloxy)phenyl)sulfonyl)-6-(methylsulfinyl)quinolin-4-yl)-4-phenyl-[1,4′-bipiperidin]-4-ol] | – | 100% | –
5 | CCCCCCCCCCOc1ccc(S(=O)(=O)c2cnc3ccc([S+](C)[O-])cc3c2N2CCC(N3CCN(C)CC3)CC2)cc1 (centres unmarked) [compound 264, 3-((4-(decyloxy)phenyl)sulfonyl)-4-(4-(4-methylpiperazin-1-yl)piperidin-1-yl)-6-(methylsulfinyl)quinoline] | – | 20% | –
6 | CCCCCCCCCCOc1ccc(S(=O)(=O)c2cnc3ccc([S+](C)[O-])cc3c2N2CCC(N3CCCC(O)C3)CC2)cc1 (centres unmarked) [compound 265, 1′-(3-((4-(decyloxy)phenyl)sulfonyl)-6-(methylsulfinyl)quinolin-4-yl)-[1,4′-bipiperidin]-3-ol] | – | 20% | –
7 | CCCCCCCCCCOc1ccc(S(=O)(=O)c2cnc3ccc([S+](C)[O-])cc3c2N2CCCN(CCN3CCCCC3)CC2)cc1 (centres unmarked) [compound 266, 3-((4-(decyloxy)phenyl)sulfonyl)-6-(methylsulfinyl)-4-(4-(2-(piperidin-1-yl)ethyl)-1,4-diazepan-1-yl)quinoline] | – | 5% | –
8 | CCCCCCCCCCOc1ccc(S(=O)(=O)c2cnc3ccc([S+](C)[O-])cc3c2N2CCC(N3CCCN(C)CC3)CC2)cc1 (centres unmarked) [compound 267, 3-((4-(decyloxy)phenyl)sulfonyl)-4-(4-(4-methyl-1,4-diazepan-1-yl)piperidin-1-yl)-6-(methylsulfinyl)quinoline] | – | 5% | –
9 | CCCCCCCCCCOc1ccc(S(=O)(=O)c2cnc3ccc([S+](C)[O-])cc3c2N2CCC(N3CCN(CCO)CC3)CC2)cc1 (centres unmarked) [compound 268, 2-(4-(1-(3-((4-(decyloxy)phenyl)sulfonyl)-6-(methylsulfinyl)quinolin-4-yl)piperidin-4-yl)piperazin-1-yl)ethan-1-ol] | 50% | – | –
10 | CCCCCCCCCCOc1ccc(S(=O)(=O)c2cnc3ccc([S+](C)[O-])cc3c2N2CCC(N3CCC(N4CCCCC4)CC3)CC2)cc1 (centres unmarked) [compound 269, 4-([1,4′:1′,4″-terpiperidin]-1″-yl)-3-((4-(decyloxy)phenyl)sulfonyl)-6-(methylsulfinyl)quinoline] | 100% | – | –
11 | CCCCCCCCCCOc1ccc(S(=O)(=O)c2cnc3ccc([S+](C)[O-])cc3c2N2CCC(N3CCC(O)(c4ccccc4)CC3)CC2)cc1 (centres unmarked) [compound 270, 1′-(3-((4-(decyloxy)phenyl)sulfonyl)-6-(methylsulfinyl)quinolin-4-yl)-4-phenyl-[1,4′-bipiperidin]-4-ol] | 50% | – | –
12 | CCCCCCCOc1ccc(S(=O)(=O)c2cnc3ccc(SC)cc3c2N2CCN(CCN3CCCC3)CC2)cc1 [compound 272, 3-((4-(heptyloxy)phenyl)sulfonyl)-6-(methylthio)-4-(4-(2-(pyrrolidin-1-yl)ethyl)piperazin-1-yl)quinoline] | 20% | – | –
13 | CCCCCCCOc1ccc(S(=O)(=O)c2cnc3ccc(SC)cc3c2N2CCN(C3CCN(C)CC3)CC2)cc1 [compound 273, 3-((4-(heptyloxy)phenyl)sulfonyl)-4-(4-(1-methylpiperidin-4-yl)piperazin-1-yl)-6-(methylthio)quinoline] | – | – | Cell death (Lung LL2 ex vivo, Conc. 20 μm): 60%
14 | CCCCCCCOc1ccc(S(=O)(=O)c2cnc3ccc(SC)cc3c2N2CCN(C3CCN(Cc4ccccc4)C3)CC2)cc1 (centres unmarked) [compound 274, 4-(4-(1-benzylpyrrolidin-3-yl)piperazin-1-yl)-3-((4-(heptyloxy)phenyl)sulfonyl)-6-(methylthio)quinoline] | 10% | – | –
15 | CCCCCCCOc1ccc(S(=O)(=O)c2cnc3ccc(SC)cc3c2N2CCN(CC3CCN(Cc4ccccc4)CC3)CC2)cc1 [compound 275, 4-(4-((1-benzylpiperidin-4-yl)methyl)piperazin-1-yl)-3-((4-(heptyloxy)phenyl)sulfonyl)-6-(methylthio)quinoline] | 5% | – | –
16 | CCCCCCCOc1ccc(S(=O)(=O)c2cnc3ccc([S+](C)[O-])cc3c2N2CCN(CCN3CCCC3)CC2)cc1 (centres unmarked) [compound 276, 3-((4-(heptyloxy)phenyl)sulfonyl)-6-(methylsulfinyl)-4-(4-(2-(pyrrolidin-1-yl)ethyl)piperazin-1-yl)quinoline] | 100% | – | –
17 | CCCCCCCOc1ccc(S(=O)(=O)c2cnc3ccc([S+](C)[O-])cc3c2N2CCN(C3CCN(Cc4ccccc4)C3)CC2)cc1 (centres unmarked) [compound 278, 4-(4-(1-benzylpyrrolidin-3-yl)piperazin-1-yl)-3-((4-(heptyloxy)phenyl)sulfonyl)-6-(methylsulfinyl)quinoline] | – | 50% | –
18 | CCCCCCCOc1ccc(S(=O)(=O)c2cnc3ccc([S+](C)[O-])cc3c2N2CCN(CC3CCN(Cc4ccccc4)CC3)CC2)cc1 (centres unmarked) [compound 279, 4-(4-((1-benzylpiperidin-4-yl)methyl)piperazin-1-yl)-3-((4-(heptyloxy)phenyl)sulfonyl)-6-(methylsulfinyl)quinoline] | 100% | – | –
19 | CCCCCCCOc1ccc(S(=O)(=O)c2cnc3ccc(SC)cc3c2N2CCN(CCN3CCCCC3)CC2)cc1 [compound 281, 3-((4-(heptyloxy)phenyl)sulfonyl)-6-(methylthio)-4-(4-(2-(piperidin-1-yl)ethyl)piperazin-1-yl)quinoline] | 50% | – | –
20 | CCCCCCCOc1ccc(S(=O)(=O)c2cnc3ccc([S+](C)[O-])cc3c2N2CCN(CCN3CCCCC3)CC2)cc1 (centres unmarked) [compound 282, 3-((4-(heptyloxy)phenyl)sulfonyl)-6-(methylsulfinyl)-4-(4-(2-(piperidin-1-yl)ethyl)piperazin-1-yl)quinoline] | – | 10% | –
21 | CC(C)CCCC(C)CCOc1ccc(S(=O)(=O)c2cnc3ccc([S+](C)[O-])cc3c2N2CCC(N3CCN(CCO)CC3)CC2)cc1 (centres unmarked) [compound 284, 2-(4-(1-(3-((4-((3,7-dimethyloctyl)oxy)phenyl)sulfonyl)-6-(methylsulfinyl)quinolin-4-yl)piperidin-4-yl)piperazin-1-yl)ethan-1-ol] | – | 10% | –
22 | CCCCCCCCCCOc1ccc(S(=O)(=O)c2cnc3ccc([S+](C)[O-])cc3c2N2CCC(N3CCC(N4CCN(C)CC4)CC3)CC2)cc1 (centres unmarked) [compound 285, 3-((4-(decyloxy)phenyl)sulfonyl)-4-(4-(4-methylpiperazin-1-yl)-[1,4′-bipiperidin]-1′-yl)-6-(methylsulfinyl)quinoline] | – | 60% | –
23 | CCCCCCCCCCOc1ccc(S(=O)(=O)c2cnc3ccc([S+](C)[O-])cc3c2N2CCC(N3CCC(N4CCOCC4)CC3)CC2)cc1 (centres unmarked) [compound 286, 4-(1′-(3-((4-(decyloxy)phenyl)sulfonyl)-6-(methylsulfinyl)quinolin-4-yl)-[1,4′-bipiperidin]-4-yl)morpholine] | – | – | Cell death (24 hrs) (Lung LL2 ex vivo, Conc. 20 μm): 0%; Morphology observations (24 hrs) (Lung LL2 ex vivo, Conc. 20 μm): 0
24 | CCCCCCCCCCOc1ccc(S(=O)(=O)c2cnc3ccc([S+](C)[O-])cc3c2N2CCC(N3CCC(N4CCCN(C)CC4)CC3)CC2)cc1 (centres unmarked) [compound 287, 3-((4-(decyloxy)phenyl)sulfonyl)-4-(4-(4-methyl-1,4-diazepan-1-yl)-[1,4′-bipiperidin]-1′-yl)-6-(methylsulfinyl)quinoline] | – | – | Cell death (24 hrs) (Lung LL2 ex vivo, Conc. 20 μm): 40%; Morphology observations (24 hrs) (Lung LL2 ex vivo, Conc. 20 μm): * (50% or less of cells vesicularize in cell shape)
25 | CCCCCCCCCCOc1ccc(S(=O)(=O)c2cnc3ccc([S+](C)[O-])cc3c2N2CCC(N3CCC(N4CCCC(O)C4)CC3)CC2)cc1 (centres unmarked) [compound 288, 1″-(3-((4-(decyloxy)phenyl)sulfonyl)-6-(methylsulfinyl)quinolin-4-yl)-[1,4′:1′,4″- terpiperidin]-3-ol] | – | 50% | –
26 | CC(C)CCCC(C)CCOc1ccc(S(=O)(=O)c2cnc3ccc([S+](C)[O-])cc3c2N2CCC(N3CCC(N4CCCCC4)CC3)CC2)cc1 (centres unmarked) [compound 289, 4-([1,4′:1′,4″-terpiperidin]-1″-yl)-3-((4-((3,7-dimethyloctyl)oxy)phenyl)sulfonyl)-6-(methylsulfinyl)quinoline] | 20% | – | –
27 | CCCCCCCCCCOc1ccc(S(=O)(=O)c2cnc3ccc([S+](C)[O-])cc3c2N2CCC(N3CCC(N4CCCCC4)CC3)CC2)cc1F (centres unmarked) [compound 290, ([1,4′:1′,4″-terpiperidin]-1″-yl)-3-((4-(decyloxy)-3-fluorophenyl)sulfonyl)-6-(methylsulfinyl)quinoline] | – | – | 48 hrs (morphology observations after 48 hours) (Lung LL2 ex vivo, Conc. 10 μm, 48 hrs): *** (100% of endothelial cells vesicularize in cell shape); Cell death (Lung LL2 ex vivo, Conc. 10 μm): 50%
28 | CCCCCCCCCCOc1ccc(S(=O)(=O)c2cnc3ccc([S+](C)[O-])cc3c2N2CCC(N3CCN(CCO)CC3)CC2)cc1F (centres unmarked) [compound 291, 2-(4-(1-(3-((4-(decyloxy)-3-fluorophenyl)sulfonyl)-6-(methylsulfinyl)quinolin-4-yl)piperidin-4-yl)piperazin-1-yl)ethan-1-ol] | – | – | Cell death (24 hrs) (Lung LL2 ex vivo, Conc. 20 μm): 10%; Morphology observations (24 hrs) (Lung LL2 ex vivo, Conc. 20 μm): * (50% or less of cells vesicularize in cell shape)
